From article PMC3064100 (Diabetes, 2011) come the findings set out here.

Common to all, as to type: in vivo, human
Holding throughout (conditions): i.v. infusion over 360 min, type 2 diabetic patients

The subject of test [1] is patients with type 2 diabetes. Description: Plasma glucagon during 360-min intravenous infusion.
Test [2] relates to patients with type 2 diabetes. The experiment in a line: Insulin secretion rates by deconvolution of C-peptide.
Test [3] relates to patients with type 2 diabetes. Description: Capillary plasma glucose during 360-min intravenous infusion.
For test [4], the system named is patients with type 2 diabetes. Description: Plasma free.

For the molecule `CC[C@H](C)[C@H](NC(=O)[C@H](CO)NC(=O)[C@H](Cc1ccc(O)cc1)NC(=O)[C@H](CC(=O)O)NC(=O)[C@H](CO)NC(=O)[C@@H](NC(=O)[C@H](Cc1ccccc1)NC(=O)[C@@H](NC(=O)CNC(=O)[C@H](CCC(=O)O)NC(=O)[C@H](C)NC(=O)[C@@H](N)Cc1ccc(O)cc1)[C@@H](C)O)[C@@H](C)CC)C(=O)N[C@@H](C)C(=O)N[C@@H](CCSC)C(=O)N[C@@H](CC(=O)O)C(=O)N[C@@H](CCCCN)C(=O)N[C@H](C(=O)N[C@@H](Cc1c[nH]cn1)C(=O)N[C@@H](CCC(N)=O)C(=O)N[C@@H](CCC(N)=O)C(=O)N[C@@H](CC(=O)O)C(=O)N[C@@H](Cc1ccccc1)C(=O)N[C@H](C(=O)N[C@@H](CC(N)=O)C(=O)N[C@@H](Cc1c[nH]c2ccccc12)C(=O)N[C@@H](CC(C)C)C(=O)N[C@@H](CC(C)C)C(=O)N[C@@H](C)C(=O)N[C@@H](CCC(N)=O)C(=O)N[C@@H](CCCCN)C(=O)NCC(=O)N[C@@H](CCCCN)C(=O)N[C@@H](CCCCN)C(=O)N[C@@H](CC(N)=O)C(=O)N[C@@H](CC(=O)O)C(=O)N[C@@H](Cc1c[nH]c2ccccc12)C(=O)N[C@@H](CCCCN)C(=O)N[C@@H](Cc1c[nH]cn1)C(=O)N[C@@H](CC(N)=O)C(=O)N[C@H](C(=O)N[C@H](C(=O)N[C@@H](CCC(N)=O)C(=O)O)[C@@H](C)O)[C@@H](C)CC)C(C)C)[C@@H](C)CC` [GIP, glucose-dependent insulinotropic polypeptide], the “Effect on glucagon concentrations” value in test [1] is recorded as “tended to increase slightly”. In test [2], the “Effect on insulin secretion (words; insulin, C-peptide, insulin secretory rates)” value is “hardly did so”. Further, in test [3], the “Effect on glucose concentrations” value was “slight reduction”. Also, the “Effect on plasma concentrations of free fatty acids” value in test [4] is “did not alter”.
